Measurements reported in US7662803B2, “Method for treating warm-blooded vertebrates with halide-free glucosamine-acidic drug complexes” (Gluconova, LLC, priority 2004, dated 2010).

How the values were obtained:
Assay type in all cases: in vivo
male Swiss-Webster mice = assay: abdominal irritant test (test for analgesia), acetylcholine bromide i.p.; conditions: 30 min before acetylcholine bromide 5.5 mg/kg i.p., observed 10 min, 10 mice per group
Description: The test that was employed is an abdominal irritant test that was carried out in accordance with the procedure set forth by Collier et al., Brit. J. Pharmacol., 32:295-310 (1968).
Each group of 10 male Swiss-Webster mice weighing 25-30 g received an oral injection of (a) distilled water or 1% Tween® 80; or (b) a previously established analgesic dose of either ibuprofen (30 mg/kg), ketoprofen (200 mg/kg), naproxen (30 mg/kg), piroxicam (3 mg/kg) or aspirin (150 mg/kg) or ([…]).
Thirty minutes after each injection, each mouse was injected i.p. ([…]) with an aqueous solution of acetylcholine bromide (5.5 mg/kg). The animals were then observed for 10 minutes for the presence or absence of a characteristic wave of contraction and elongation passing caudally along the abdominal wall, accompanied by a twisting of the trunk and followed by extension of the hind limbs. The percentage of analgesia was then calculated for each group based on the percentage of mice displaying no behavioral response.

male Swiss Webster mice [1] = assay: Metrazol-induced convulsions (test for antiepileptic activity); conditions: 15 mg/kg subcutaneous, 15 min before metrazol 120 mg/kg s.c., 10 mice
Description: Three groups of 10 male Swiss Webster mice (25-30 g) received a subcutaneous injection of one of the following treatments: vehicle alone; phenytoin (15 mg/kg in 1% Tween® 80); halide-free glucosamine-phenytoin complex, ˜1:1 molar ratio, (15 mg/kg in water). Fifteen minutes later, each animal was injected subcutaneously with a convulsant dose of metrazol (120 mg/kg) and observed for 60 minutes for an entire-body convulsion.

male Swiss Webster mice [2] = assay: Elevated Plus Maze (test for antianxiety activity); conditions: 0.50 mg/kg intraperitoneal, 30 min before test, 5 minute on maze, 6 mice
Description: The apparatus employed in this example consisted of two darkened enclose arms and two open arms, with a light beam focused on the open arms. The maze is elevated to a height of 55 cm. Mice have a desire to explore the apparatus, but the open, bristly lit arms present an aversive environment so that their preference is to remain in the enclosed arms.
Thirty minutes later, each animal was individually placed on the elevated maze for 5 minute and the time spent on the open (aversive) arms was recorded.

[3] = 30 mg/kg oral (complex: mg/kg of the complex)

COc1ccc2cc([C@H](C)C(=O)O)ccc2c1 [naproxen]
analgesia (percentage of mice displaying no behavioral response) (male Swiss-Webster mice; [3]): 70%

O=C1NC(=O)C(c2ccccc2)(c2ccccc2)N1 [Phenytoin, phenytoin]
No. of mice protected (no body seizures in 60 min.) (male Swiss Webster mice [1]): 1/10

CC(=O)Oc1ccccc1C(=O)O [aspirin]
analgesia (percentage of mice displaying no behavioral response) (male Swiss-Webster mice; 0.50 mg/kg oral as printed (complex: mg/kg of the complex)): 70%

CC(C(=O)O)c1cccc(C(=O)c2ccccc2)c1 (stereo not shown) [ketoprofen]
analgesia (percentage of mice displaying no behavioral response) (male Swiss-Webster mice; 200 mg/kg oral (complex: mg/kg of the complex)): 56%

CC(C)Cc1ccc(C(C)C(=O)O)cc1 (stereo not shown) [ibuprofen]
analgesia (percentage of mice displaying no behavioral response) (male Swiss-Webster mice; [3]): 80%

CN1C(=O)CN=C(c2ccccc2)c2cc(Cl)ccc21 [Diazepam, diazepam]
Mean time (sec) ± s.e.m. in open arms (male Swiss Webster mice [2]): 30.3 ± 12.7 s

CN1C(C(=O)Nc2ccccn2)=C(O)c2ccccc2S1(=O)=O [piroxicam]
analgesia (percentage of mice displaying no behavioral response) (male Swiss-Webster mice; 3 mg/kg oral (complex: mg/kg of the complex)): 70%
